Assay results as given in patent EP3623369A1, “NOVEL MORPHOLINYL AMINE COMPOUNDS FOR THE TREATMENT OF AUTOIMMUNE DISEASE” (F. Hoffmann-La Roche AG, priority 2018, dated 2020).

Molecular target: T1, human TLR8 (Homo sapiens, UniProt Q9NR97)
T1 sequence (Q9NR97 27-1041): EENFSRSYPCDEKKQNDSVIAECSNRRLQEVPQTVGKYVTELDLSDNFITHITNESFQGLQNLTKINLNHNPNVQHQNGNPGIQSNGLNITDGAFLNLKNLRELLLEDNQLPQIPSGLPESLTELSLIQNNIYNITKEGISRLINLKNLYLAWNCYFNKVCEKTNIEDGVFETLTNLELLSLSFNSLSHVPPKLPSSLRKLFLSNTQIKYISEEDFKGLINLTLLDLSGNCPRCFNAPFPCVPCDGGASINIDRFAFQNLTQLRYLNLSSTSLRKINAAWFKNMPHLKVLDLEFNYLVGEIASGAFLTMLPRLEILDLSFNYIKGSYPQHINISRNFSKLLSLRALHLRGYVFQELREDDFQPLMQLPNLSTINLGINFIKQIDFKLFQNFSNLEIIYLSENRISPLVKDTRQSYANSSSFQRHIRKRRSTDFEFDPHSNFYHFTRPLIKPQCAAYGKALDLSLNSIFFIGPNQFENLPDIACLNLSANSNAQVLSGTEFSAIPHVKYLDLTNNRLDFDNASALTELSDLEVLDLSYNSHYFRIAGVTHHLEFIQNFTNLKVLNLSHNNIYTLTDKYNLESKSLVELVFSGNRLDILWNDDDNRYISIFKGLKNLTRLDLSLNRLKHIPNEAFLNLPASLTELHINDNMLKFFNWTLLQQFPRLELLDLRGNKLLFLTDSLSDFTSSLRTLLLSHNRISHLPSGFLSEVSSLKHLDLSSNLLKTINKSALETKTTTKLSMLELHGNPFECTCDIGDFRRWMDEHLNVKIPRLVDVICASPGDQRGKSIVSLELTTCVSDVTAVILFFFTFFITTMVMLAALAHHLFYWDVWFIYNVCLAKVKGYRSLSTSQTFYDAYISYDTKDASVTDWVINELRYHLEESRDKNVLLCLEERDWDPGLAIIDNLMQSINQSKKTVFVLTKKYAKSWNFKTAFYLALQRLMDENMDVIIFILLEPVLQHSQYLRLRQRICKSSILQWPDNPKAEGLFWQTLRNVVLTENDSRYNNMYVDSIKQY
Assay: HEK293-Blue-hTLR-8 cells assay (SEAP reporter, R848 stimulation)
Type: cell-based
Details: HEK293-Blue-hTLR8 cells, R848, 20 hrs; 0.003 is the lowest tested concentration; read-out: HEK/hTLR8 IC50
Method: The following tests were carried out in order to determine the activity of the compounds of formula (I) or (Ia) in HEK293-Blue-hTLR-7/8/9 cells assay.
HEK293-Blue-hTLR-8 cells assay:
A stable HEK293-Blue-hTLR-8 cell line was purchased from InvivoGen (Cat.#: hkb-htlr8, San Diego, California, USA). These cells were originally designed for studying the stimulation of human TLR8 by monitoring the activation of NF-κB. A SEAP (secreted embryonic alkaline phosphatase) reporter gene was placed under the control of the IFN-β minimal promoter fused to five NF-κB and AP-1-binding sites. The SEAP was induced by activating NF-κB and AP-1 via stimulating HEK-Blue hTLR8 cells with TLR8 ligands. Therefore the reporter expression was declined by TLR8 antagonist under the stimulation of a ligand, such as R848, for incubation of 20 hrs. The cell culture supernatant SEAP reporter activity was determined using QUANTI-Blue™ kit (Cat.#: rep-qb1, Invivogen, San Diego, Ca, USA) at a wavelength of 640 nm, a detection medium that turns purple or blue in the presence of alkaline phosphatase.
HEK293-Blue-hTLR8 cells were incubated at a density of 250,000∼450,000 cells/mL in a volume of 170 µL in a 96-well plate in Dulbecco's Modified Eagle's medium (DMEM) containing 4.5 g/L glucose, 50 U/mL penicillin, […], […], 2 mM L-glutamine, 10% (v/v) heat-inactivated fetal bovine serum with addition of 20 µL test compound in a serial dilution in the presence of final DMSO at 1% and 10 µL of 60uM R848 in above DMEM, perform incubation under 37 °C in a CO2 incubator for 20 hrs. Then 20 µL of the supernatant from each well was incubated with 180 µL Quanti-blue substrate solution at 37°C for 2 hrs and the absorbance was read at 620∼655 nm using a spectrophotometer. The signalling pathway that TLR8 activation leads to downstream NF-κB activation has been widely accepted, and therefore similar reporter assay was modified for evaluating TLR8 antagonist.

| Molecule | IC50 [nM] |
| --- | --- |
| C[C@@H]1CN(c2ccc(C#N)c3ncccc23)C[C@H](CN2Cc3ccc(N4CC5COCC(C4)N5)cc3C2)O1 [Example 72, 5-[(2R,6S)-2-methyl-6-[[5-(3-oxa-7,9-diazabicyclo[3.3.1]nonan-7-yl)isoindolin-2-yl]methyl]morpholin-4-yl]quinoline-8-carbonitrile] | 9 |
| C[C@@H]1CN(c2ccc(C#N)c3ncccc23)C[C@H](CN2CCc3cc(N4CCNCC4)ncc3C2)O1 [Example 70, 5-[(2R,6S)-2-methyl-6-[(6-piperazin-1-yl-3,4-dihydro-1H-2,7-naphthyridin-2-yl)methyl]morpholin-4-yl]quinoline-8-carbonitrile] | < 3 |
| C[C@@H]1CN(c2ccc(C#N)c3ncccc23)C[C@H](CN2Cc3ccc(N4C5CNCC4COC5)cc3C2)O1 [Example 46, 5-[(2R,6S)-2-methyl-6-[[5-(3-oxa-7,9-diazabicyclo[3.3.1]nonan-9-yl)isoindolin-2-yl]methyl]morpholin-4-yl]quinoline-8-carbonitrile] | 19 |
| CC1c2ccc(N3CCNCC3)cc2CN1C[C@H]1CN(c2ccc(C#N)c3ncccc23)C[C@@H](C)O1 (stereo partly drawn) [Example 48, 5-[(2R,6S)-2-methyl-6-[(1-methyl-5-piperazin-1-yl-isoindolin-2-yl)methyl]morpholin-4-yl]quinoline-8-carbonitrile] | 18 |
| C[C@@H]1CN(c2ccc(C#N)n3nccc23)C[C@H](CN2CCc3ccc(N4CCNCC4)cc3C2)O1 [Example 11, 4-[(2R,6S)-2-methyl-6-[(7-piperazin-1-yl-3,4-dihydro-1H-isoquinolin-2-yl)methyl]morpholin-4-yl]pyrazolo[1,5-a]pyridine-7-carbonitrile] | 229 |
| C[C@@H]1CN(c2ccc3c(c2)CN(C[C@H]2CN(c4ccc(C#N)c5ncccc45)C[C@@H](C)O2)C3)C[C@H](C)N1 [Example 71, 5-[(2R,6S)-2-methyl-6-[[5-[(3R,5S)-3,5-dimethylpiperazin-1-yl]isoindolin-2-yl]methyl]morpholin-4-yl]quinoline-8-carbonitrile] | 6 |
| C[C@@H]1CN(c2ccc(C#N)n3ncc(F)c23)C[C@H](CN2CCc3cc(N4CCNCC4)ccc3C2)O1 [Example 14, 3-fluoro-4-[(2R,6S)-2-methyl-6-[(6-piperazin-1-yl-3,4-dihydro-1H-isoquinolin-2-yl)methyl]morpholin-4-yl]pyrazolo[1,5-a]pyridine-7-carbonitrile] | 29 |
| C[C@@H]1CN(c2ccc(C#N)c3ncccc23)C[C@H](CNCc2ccc(N3CCNCC3)cc2)O1 [Example 86, 5-[(2R,6S)-2-methyl-6-[[(4-piperazin-1-ylphenyl)methylamino]methyl]morpholin-4-yl] quinoline-8-carbonitrile] | 26 |
| C[C@@H]1CN(c2ccc(C#N)c3ncccc23)C[C@H](CN2CCc3nc(N4CCNCC4)ccc3C2)O1 [Example 79, 5-[(2R,6S)-2-methyl-6-[(2-piperazin-1-yl-7,8-dihydro-5H-1,6-naphthyridin-6-yl)methyl]morpholin-4-yl]quinoline-8-carbonitrile] | 4 |
| C[C@@H]1CN(c2ccc(Cl)c3ncccc23)C[C@H](CN2CCc3cc(N4CCNCC4)ccc3C2)O1 [Example 32, (2R,6S)-4-(8-chloro-5-quinolyl)-2-methyl-6-[(6-piperazin-1-yl-3,4-dihydro-1H-isoquinolin-2-yl)methyl]morpholine] | 17 |
| 3-fluoro-4-[(2R,6S)-2-methyl-6-[(5-piperazin-1-ylisoindolin-2-yl)methyl]morpholin-4-yl]pyrazolo[1,5-a]pyridine-7-carbonitrile [Example 7] | 13 |
| C[C@@H]1CN(c2ccc(C#N)n3nccc23)C[C@H](CN2CCc3cc(N4CCNCC4)ccc3C2)O1 [Example 10, 4-[(2R,6S)-2-methyl-6-[(6-piperazin-1-yl-3,4-dihydro-1H-isoquinolin-2-yl)methyl]morpholin-4-yl]pyrazolo[1,5-a]pyridine-7-carbonitrile] | 52 |

Now from value to molecule:

| IC50 [nM] | Molecule |
| --- | --- |
| < 3 | CC1CNCCN1c1ccc2c(c1)CN(C[C@H]1CN(c3ccc(C#N)c4ncccc34)C[C@@H](C)O1)C2 (stereo partly drawn) [Example 78, 5-[(2R,6S)-2-methyl-6-[[5-(2-methylpiperazin-1-yl)isoindolin-2-yl]methyl]morpholin-4-yl] quinoline-8-carbonitrile] |
| 23 | C[C@@H]1CN(c2ccc(C#N)c3ncccc23)C[C@H](CN2Cc3ccc(N4CC5(CNC5)C4)cc3C2)O1 [Example 47, 5-[(2S,6R)-2-[[5-(2,6-diazaspiro[3.3]heptan-2-yl)isoindolin-2-yl]methyl]-6-methyl-morpholin-4-yl]quinoline-8-carbonitrile] |
| < 3 | C[C@@H]1CN(c2ccc(C#N)c3nccnc23)C[C@H](CN2CCc3cc(N4CCNCC4)ccc3C2)O1 [Example 13, 8-[(2R,6S)-2-methyl-6-[(6-piperazin-1-yl-3,4-dihydro-1H-isoquinolin-2-yl)methyl]morpholin-4-yl]quinoxaline-5-carbonitrile] |
| 20 | C[C@@H]1CN(c2ccc(C#N)c3ncccc23)C[C@H](CN2Cc3ccc(N4CCNC[C@H]4CO)cc3C2)O1 [Example 83, 5-[(2S,6R)-2-[[5-[(2S)-2-(hydroxymethyl)piperazin-1-yl]isoindolin-2-yl]methyl]-6-methyl-morpholin-4-yl]quinoline-8-carbonitrile] |
| < 3 | C[C@@H]1CN(c2ccc(C#N)c3ncccc23)C[C@H](CN2Cc3ccc(N4CCNCC4)nc3C2)O1 [Example 80, 5-[(2R,6S)-2-methyl-6-[(2-piperazin-1-yl-5,7-dihydropyrrolo[3,4-b]pyridin-6-yl)methyl]morpholin-4-yl]quinoline-8-carbonitrile] |
| 9 | C[C@@H]1CN(c2ccc(C#N)c3nccnc23)C[C@H](CN2Cc3ccc(N4CCN(C5CC5)CC4)cc3C2)O1 [Example 35, 8-[(2S,6R)-2-[[5-(4-cyclopropylpiperazin-1-yl)isoindolin-2-yl]methyl]-6-methyl-morpholin-4-yl]quinoxaline-5-carbonitrile] |
| 4 | C[C@@H]1CN(c2ccc(C#N)c3ncsc23)C[C@H](CN2CCc3cc(N4CCNCC4)ccc3C2)O1 [Example 24, 7-[(2R,6S)-2-methyl-6-[(6-piperazin-1-yl-3,4-dihydro-1H-isoquinolin-2-yl)methyl]morpholin-4-yl]-1,3-benzothiazole-4-carbonitrile] |
| 57 | C[C@@H]1CN(c2ccc(C#N)n3nccc23)C[C@H](CN2Cc3ccc(N4CCNCC4)cc3C2)O1 [Example 4, 4-[(2R,6S)-2-methyl-6-[(5-piperazin-1-ylisoindolin-2-yl)methyl]morpholin-4-yl]pyrazolo[1,5-a]pyridine-7-carbonitrile] |
| 5 | C[C@@H]1CN(c2ccc(C#N)c3nccnc23)C[C@H](CN2Cc3ccc(N4CCNC5(CC5)C4)cc3C2)O1 [Example 38, 8-[(2S,6R)-2-[[5-(4,7-diazaspiro[2.5]octan-7-yl)isoindolin-2-yl]methyl]-6-methyl-morpholin-4-yl]quinoxaline-5-carbonitrile] |
| < 3 | C[C@@H]1CN(c2ccc(C#N)c3nccnc23)C[C@H](CN2Cc3ccc(N4CCNCC4)cc3C2)O1 [Example 12, 8-[(2R,6S)-2-methyl-6-[(5-piperazin-1-ylisoindolin-2-yl)methyl]morpholin-4-yl]quinoxaline-5-carbonitrile] |
